Tested on: ICR strain mice
Conditions: mouse, in vivo, po, 300 mg/kg
Procedure: Six male ICR strain mice weighing 20 g for each group were administered orally with 300 mg/kg of the test drug (all the test drugs were used in the form of the suspension in 0.5% CMC). Two hours after administration, 5 mm of the tail from the top was cut under pentobarbital anesthesia, and the bleeding was observed by tapping at the cutting site with a filter paper every 15 seconds. The time when the bleeding was observed stopping for one minute is defined as the arrest point of bleeding, and the duration required from the time when the cutting was done to the arrest point of bleeding is defined as the bleeding time. The observation was carried out up to 1200 seconds. Ticlopidine was used as a positive control.

Row | Bleeding time ± standard error | SMILES
1 | 417.5 ± 171.22 s | CC(C=C1C(=O)N(c2ccccc2)C1c1ccccc1)=NOCC(=O)O (centres unmarked) [Compound 1, 3-(2-carboxymethoxyiminopropylidene)-1,4-diphenyl-2-azetidinone]
2 | 1127.5 ± 72.50 (note) seconds | Clc1ccccc1CN1CCc2sccc2C1 [ticlopidine]
